# Columns and labels:
# HEK293T cells = experiment: In vitro Luc-mRNA transfection, luciferase luminescence expression in HEK293T cells; assay type: cell-based, human; set-up: unit not given here; conditions: Table 16; HEK 293T cells, 125 ng/well, n=3
# Procedure, shortened: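 HEK293T cells were transfected with nucleoside-modified firefly luciferase mRNA at 125 ng/well delivered in the test particles. TransIT and MC3-based LNPs at equal mRNA dose served as comparators. After 24 h (18-20 h in some runs) at 37° C the cells were lysed, and luciferase luminescence was read on a luminometer, in triplicate.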
# [1] = Stability of DNPs by DLS after storage at 5° C.; assay type: physicochemical; set-up: key: Excellent: the original sizes and distribution types remained almost the same after storage; Good: the original sizes and distribution types changed slightly (size difference was less than 100 nm) or the original size remained almost the same but the DLS curve showed more size distributions after storage
# Procedure, shortened: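 DNPs in acetate buffer sized by DLS after storage at 5 °C. Stability ranked Excellent, Good or Not stable according to retention, shrinkage or growth of original size and narrowing or broadening of size distribution.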
# BALB/c mice = experiment: In vivo mRNA delivery in mice with DNPs, whole-body bioluminescence imaging (IVIS)
# lung = experiment: In vivo mRNA delivery, IVIS imaging of organs: lung; set-up: species or system mice; key to Organs with luminescence: lung: strong: Strong meant the luminescence intensity in that organ was relatively high, compared to other organs; weak: Weak meant the luminescence intensity in that organ was relatively low, compared to other organs; conditions: Table 17; mice, IVIS, 4-6 h after injection; intensity relative to other organs
# [2] = Table 20, nonsymmetric IAJDs and MC3-Luc-mRNA
SMILES,Luminescence (HEK293T cells),Ranking of stability ([1]; after 35 days at 5° C.),"In vivo activity (total flux, p/s) (BALB/c mice; Table 19, nonsymmetric IAJDs)","In vivo activity (total flux, p/s) (BALB/c mice; [2])",Organs with luminescence: lung (lung),Ranking of stability ([1]; after 11 days at 5° C.),"increase of activity, amide vs ester interconnecting group (BALB/c mice; transition from 158(11/17) (ester) to 159(11/17) (amide))",Ranking of stability ([1]; after 21 days at 5° C.),Ranking of stability ([1]; after 14 days at 5° C.)
"CCCCCCCCCCCCCCCCCCOc1cc(COC(=O)CCCN2CCN(C)CC2)cc(OCCCCCCCCCCCCCCC)c1 [IAJD 153, 3-(Octadecyloxy)-5-(pentadecyloxy)benzyl 4-(4-methylpiperazin-1-yl)butanoate]","8,860",Excellent,7.33 × 10^7 p/s,7.33 × 10^7 p/s,"Lung (weak),",–,–,–,–
"CCCCCCCCCCCCCCCCCCOc1cc(COC(=O)CCCN2CCN(CCO)CC2)cc(OCCCCCCCCCCCCCCC)c1 [IAJD 154, 3-(Octadecyloxy)-5-(pentadecyloxy)benzyl 4-(4-(2-hydroxyethyl)piperazin-1-yl)butanoate]","17,871",Excellent,2.39 × 10^7 p/s,2.39 × 10^7 p/s,"Lung (weak),",–,–,–,–
CCCCCCCCCCCCCCCCCOc1cc(CNC(=O)c2cc(OCCOCCOCCOC(=O)CCCN3CCCCC3)c(OCCCOCOCCOCc3ccccc3)c(OCCOCCOCCOC(=O)CCCN3CCCCC3)c2)cc(OCCCCCCCCCCCCCCCCC)c1 [IAJD 159],"24,055",–,–,–,Lung (strong),Excellent,about 6 fold,–,–
"CCCCCCCCCCCCCOc1cc(COC(=O)CCCN2CCN(C)CC2)cc(OCC(CC)CCCC)c1 (stereo not shown) [IAJD 161, 3-((2-Ethylhexyl)oxy)-5-(tridecyloxy)benzyl 4-(4-methylpiperazin-1-yl)butanoate]",128,–,8.48 × 10^7 p/s,–,"Lung (weak),",–,–,Excellent,–
"CCCCCCCCCCCCCOc1cc(COC(=O)CCCN2CCN(CCO)CC2)cc(OCC(CC)CCCC)c1 (stereo not shown) [IAJD 162, 3-((2-Ethylhexyl)oxy)-5-(tridecyloxy)benzyl 4-(4-(2-hydroxyethyl)piperazin-1-yl)butanoate]","222,235",–,2.03 × 10^8 p/s,2.03 × 10^8 p/s,"Lung (weak),",–,–,Excellent,–
"CCCCCCCCCCCCCCOc1cc(COC(=O)CCCN2CCN(C)CC2)cc(OCCCCCCCCCCCCC)c1 [IAJD 171, 3-(Tetradecyloxy)-5-(tridecyloxy)benzyl 4-(4-methylpiperazin-1-yl)butanoate]","1,436",–,7.68 × 10^7 p/s,7.68 × 10^7 p/s,"Lung (weak),",–,–,Excellent,–
"CCCCCCCCCCCCCCOc1cc(COC(=O)CCCN2CCN(CCO)CC2)cc(OCCCCCCCCCCCCC)c1 [IAJD 172, 3-(Tetradecyloxy)-5-(tridecyloxy)benzyl 4-(4-(2-hydroxyethyl)piperazin-1-yl)butanoate]","166,377",–,6.82 × 10^7 p/s,–,"Lung (weak),",–,–,–,Excellent
"CCCCCCCCCCCCCCCCOc1cc(COC(=O)CCCN2CCN(C)CC2)cc(OCCCCCCCCCCCCC)c1 [IAJD 173, 3-(Hexadecyloxy)-5-(tridecyloxy)benzyl 4-(4-methylpiperazin-1-yl)butanoate]","2,302",–,1.23 × 10^8 p/s,1.23 × 10^8 p/s,"Lung (weak),",–,–,Good,–
